# Source: patent US10758534B2 (Vertex Pharmaceuticals Incorporated, priority 2014, dated 2020)
# Target: T1, F508del (Homo sapiens, UniProt P13569, DEL508-508)
# T1 construct: expressed in transfected cells
# Assay: Protocol 2: FRET membrane potential optical assay (VIPR), identification of correction compounds
# Type: cell-based
# Conditions: Table 3; compounds of Table 1 as modulators of CFTR activity; protocol not stated
# Procedure, shortened: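 Single-addition HTS format: F508del-expressing NIH3T3 cells pre-incubated 16 hrs at 37° C. ± compound, with 27° C. culture as positive control. Channel activation by forskolin 10 μM and genistein 20 μM upon switch to gluconate bath, pH 7.4; read-out is FRET-based depolarization signal.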
# T1 sequence (P13569 with tags, fused parts or gaps DEL508-508): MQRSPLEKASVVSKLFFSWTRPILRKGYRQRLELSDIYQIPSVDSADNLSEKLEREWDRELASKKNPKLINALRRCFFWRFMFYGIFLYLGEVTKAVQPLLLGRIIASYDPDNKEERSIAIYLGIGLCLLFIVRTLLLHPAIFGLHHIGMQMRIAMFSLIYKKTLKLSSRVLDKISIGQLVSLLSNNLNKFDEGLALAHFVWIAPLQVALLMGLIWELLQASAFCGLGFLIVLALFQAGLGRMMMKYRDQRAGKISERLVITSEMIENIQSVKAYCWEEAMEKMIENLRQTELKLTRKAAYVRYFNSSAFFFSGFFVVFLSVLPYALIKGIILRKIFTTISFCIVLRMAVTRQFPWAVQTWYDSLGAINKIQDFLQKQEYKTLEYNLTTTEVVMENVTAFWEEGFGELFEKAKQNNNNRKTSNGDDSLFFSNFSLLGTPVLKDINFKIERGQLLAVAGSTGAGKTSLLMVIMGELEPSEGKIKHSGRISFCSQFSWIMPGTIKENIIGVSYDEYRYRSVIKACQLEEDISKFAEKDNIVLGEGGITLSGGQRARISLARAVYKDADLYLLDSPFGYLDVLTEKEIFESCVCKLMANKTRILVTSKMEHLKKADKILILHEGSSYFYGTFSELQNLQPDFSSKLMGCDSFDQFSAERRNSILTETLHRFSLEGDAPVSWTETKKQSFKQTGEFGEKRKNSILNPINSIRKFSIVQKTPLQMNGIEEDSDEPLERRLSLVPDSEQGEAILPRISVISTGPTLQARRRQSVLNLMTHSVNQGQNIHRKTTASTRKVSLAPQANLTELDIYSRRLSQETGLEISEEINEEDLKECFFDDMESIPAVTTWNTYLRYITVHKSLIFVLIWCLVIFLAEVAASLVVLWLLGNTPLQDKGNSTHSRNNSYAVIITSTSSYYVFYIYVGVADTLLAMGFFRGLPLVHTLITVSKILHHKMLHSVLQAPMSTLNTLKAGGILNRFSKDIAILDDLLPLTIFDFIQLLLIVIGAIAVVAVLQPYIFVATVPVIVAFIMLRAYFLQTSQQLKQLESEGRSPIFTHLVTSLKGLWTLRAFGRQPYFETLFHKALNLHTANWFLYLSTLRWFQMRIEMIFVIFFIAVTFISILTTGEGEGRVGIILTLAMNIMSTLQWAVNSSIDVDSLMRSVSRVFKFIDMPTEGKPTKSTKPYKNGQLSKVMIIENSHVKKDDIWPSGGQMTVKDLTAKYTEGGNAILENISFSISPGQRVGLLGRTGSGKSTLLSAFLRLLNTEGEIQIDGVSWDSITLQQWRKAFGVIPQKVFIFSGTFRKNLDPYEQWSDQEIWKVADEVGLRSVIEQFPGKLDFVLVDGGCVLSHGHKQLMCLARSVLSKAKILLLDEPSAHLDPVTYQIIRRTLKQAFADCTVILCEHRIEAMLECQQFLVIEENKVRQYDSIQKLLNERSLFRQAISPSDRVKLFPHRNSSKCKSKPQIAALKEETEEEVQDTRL
row,EC30,Structure (SMILES)
1,+++ (“+++” means <3 uM),"Cc1ccc(Oc2nc(-c3cc(F)cc(OC(C)C)c3)ccc2C(=O)NS(=O)(=O)c2nccnc2N)c(C)c1 [Compound 559, N-(3-aminopyrazin-2-yl)sulfonyl-2-(2,4-dimethylphenoxy)-6-(3-fluoro-5-isopropoxy-phenyl)pyridine-3-carboxamide]"
2,+++ (“+++” means <3 uM),"Cc1cc(C)c(Oc2nc(-c3ccc(F)cc3)ccc2C(=O)NS(=O)(=O)c2ccc[nH]c2=O)c(C)c1 [Compound 561, 6-(4-fluorophenyl)-N-[(2-oxo-1H-pyridin-3-yl)sulfonyl]-2-(2,4,6-trimethylphenoxy)pyridine-3-carboxamide]"
3,++ (“++” means between 3 uM and 10 uM),"Cc1cc(C)c(Oc2nc(-n3cccn3)ccc2C(=O)NS(=O)(=O)c2cccc(N)n2)c(C)c1 [Compound 564, N-[(6-amino-2-pyridyl)sulfonyl]-6-pyrazol-1-yl-2-(2,4,6-trimethylphenoxy)pyridine-3-carboxamide]"
4,+ (“+” means greater than 10 uM),"Cc1cc(C)c(Cn2nc(C(C)C)cc2C(=O)NS(=O)(=O)c2cccc(N)c2)c(C)c1 [Compound 566, N-(3-aminophenyl)sulfonyl-5-isopropyl-2-[(2,4,6-trimethylphenyl)methyl]pyrazole-3-carboxamide]"
5,++ (“++” means between 3 uM and 10 uM),"CC(C)Oc1ccc(-c2ccc(C(=O)NS(=O)(=O)c3cccc(N)n3)c(N3CCCCC3)n2)cn1 [Compound 567, N-[(6-amino-2-pyridyl)sulfonyl]-6-(6-isopropoxy-3-pyridyl)-2-(1-piperidyl)pyridine-3-carboxamide]"
6,+++ (“+++” means <3 uM),"CN=S(=O)(NC(=O)c1ccc(C(C)(C)C)nc1Oc1c(C)cc(C)cc1C)c1cccc(N)c1 (stereo not drawn) [Compound 568, N—[S-(3-aminophenyl)-N-methyl-sulfonimidoyl]-6-tert-butyl-2-(2,4,6-trimethylphenoxy)pyridine-3-carboxamide]"
7,+++ (“+++” means <3 uM),"CC(C)CNc1ccc(-c2ccc(C(=O)NS(=O)(=O)c3cccc(N)n3)c(N3CC(C)CC3(C)C)n2)cn1 (stereo not shown) [Compound 569, N-[(6-amino-2-pyridyl)sulfonyl]-6-[16-(isobutylamino)-3-pyridyl]-2-(2,2,4-trimethylpyrrolidin-1-yl)pyridine-3-carboxamide]"
8,+++ (“+++” means <3 uM),"Cc1cc(C)c(Oc2nc(-c3cccc(F)c3)ccc2C(=O)NS(=O)(=O)c2cccc(N)n2)c(C)c1 [Compound 570, N-[(6-amino-2-pyridyl)sulfonyl]-6-(3-fluorophenyl)-2-(2,4,6-trimethylphenoxy)pyridine-3-carboxamide]"
9,++ (“++” means between 3 uM and 10 uM),"CC(C)(C)c1ccc(C(=O)NS(=O)(=O)c2cccc(N)n2)c(N2CCCCC2)n1 [Compound 571, N-[(6-amino-2-pyridyl)sulfonyl]-6-tert-butyl-2-(1-piperidyl)pyridine-3-carboxamide]"
10,+++ (“+++” means <3 uM),"C[C@@H]1CC[C@H](C)N1c1nc(-c2cc(F)cc(OCC(C)(C)C)c2)ccc1C(=O)NS(=O)(=O)c1ccc[nH]c1=O [Compound 572, 6-[3-(2,2-dimethylpropoxy)-5-fluoro-phenyl]-2-[(2S,5R)-2,5-dimethylpyrrolidin-1-yl]-N-[(2-oxo-1H-pyridin-3-yl)sulfonyl]pyridine-3-carboxamide]"
11,+++ (“+++” means <3 uM),"Cc1cc(C)c(Oc2nc(C3=CCC(C)(C)CC3)ccc2C(=O)NS(=O)(=O)c2ccc[nH]c2=O)c(C)c1 [Compound 573, 6-(4,4-dimethylcyclohexen-1-yl)-N-[(2-oxo-1H-pyridin-3-yl)sulfonyl]-2-(2,4,6-trimethylphenoxy)pyridine-3-carboxamide]"
12,++ (“++” means between 3 uM and 10 uM),"COCC1CCCCN1c1nc(-c2ccc(OC(C)C)nc2)ccc1C(=O)NS(=O)(=O)c1cccc(N)n1 (stereo not shown) [Compound 574, N-[(6-amino-2-pyridyl)sulfonyl]-6-(6-isopropoxy-3-pyridyl)-2-[2-(methoxymethyl)-1-piperidyl]pyridine-3-carboxamide]"
13,+++ (“+++” means <3 uM),"C[C@H](COCc1ccccc1)Oc1ccc(-c2ccc(C(=O)NS(=O)(=O)c3cccc(N)n3)c(N3[C@H](C)CC[C@@H]3C)n2)cn1 [Compound 576, N-[(6-amino-2-pyridyl)sulfonyl]-6-[6-[(1R)-2-benzyloxy-1-methyl-ethoxy]-3-pyridyl]-2-[(2S,5R)-2,5-dimethylpyrrolidin-1-yl]pyridine-3-carboxamide]"
14,++ (“++” means between 3 uM and 10 uM),"Cc1cc(C)c(Oc2nc(-c3cnn(CC(C)C)c3)ccc2C(=O)NS(=O)(=O)c2cc[nH]n2)c(C)c1 [Compound 577, 6-(1-isobutylpyrazol-4-yl)-N-(1H-pyrazol-3-ylsulfonyl)-2-(2,4,6-trimethylphenoxy)pyridine-3-carboxamide]"
15,+++ (“+++” means <3 uM),"CC(C)Oc1ccc(-c2ccc(C(=O)NS(=O)(=O)c3cccc(N)n3)c(N3CCC4(CC3)CC4)n2)cn1 [Compound 578, N-[(6-amino-2-pyridyl)sulfonyl]-2-(6-azaspiro[2.5]octan-6-yl)-6-(6-isopropoxy-3-pyridyl)pyridine-3-carboxamide]"
16,+++ (“+++” means <3 uM),"Cc1cc(C)c(Oc2nc(-c3ccc(Cl)cc3)ccc2C(=O)NS(=O)(=O)c2ccc[nH]c2=O)c(C)c1 [Compound 579, 6-(4-chlorophenyl)-N-[(2-oxo-1H-pyridin-3-yl)sulfonyl]-2-(2,4,6-trimethylphenoxy)pyridine-3-carboxamide]"
17,+++ (“+++” means <3 uM),"CCC(CC)Oc1cccc(-c2ccc(C(=O)NS(=O)(=O)c3cccc(N)n3)c(N3CC(C)CC3(C)C)n2)n1 (stereo not shown) [Compound 580, N-[(6-amino-2-pyridyl)sulfonyl]-6-[6-(1-ethylpropoxy)-2-pyridyl]-2-(2,2,4-trimethylpyrrolidin-1-yl)pyridine-3-carboxamide]"
18,++ (“++” means between 3 uM and 10 uM),"Cc1cc(C)c(Oc2nc(-c3c[nH]nc3C(F)(F)F)ccc2C(=O)NS(=O)(=O)c2cccc(N)n2)c(C)c1 [Compound 582, N-[(6-amino-2-pyridyl)sulfonyl]-6-[3-(trifluoromethyl)-1H-pyrazol-4-yl]-2-(2,4,6-trimethylphenoxy)pyridine-3-carboxamide]"
19,++ (“++” means between 3 uM and 10 uM),"Cc1cc(C)c(Oc2nc(-c3cnn(C)c3C)ccc2C(=O)NS(=O)(=O)c2cccc(N)n2)c(C)c1 [Compound 584, N-[(6-amino-2-pyridyl)sulfonyl]-6-(1,5-dimethylpyrazol-4-yl)-2-(2,4,6-trimethylphenoxy)pyridine-3-carboxamide]"
20,+++ (“+++” means <3 uM),"CCOc1cc(F)cc(-c2ccc(C(=O)NS(=O)(=O)c3cc[nH]n3)c(Oc3c(C)cc(C)cc3C)n2)c1 [Compound 585, 6-(3-ethoxy-5-fluoro-phenyl)-N-(1H-pyrazol-3-ylsulfonyl)-2-(2,4,6-trimethylphenoxy)pyridine-3-carboxamide]"

row,Structure (SMILES),EC30
1,"CC(C)COc1cc(F)cc(-c2ccc(C(=O)NS(=O)(=O)c3cccc(N)n3)c(N3CC(C)CC(C)(C)C3)n2)c1 (stereo not shown) [Compound 560, N-[(6-amino-2-pyridyl)sulfonyl]-6-(3-fluoro-5-isobutoxy-phenyl)-2-(3,3,5-trimethyl-1-piperidyl)pyridine-3-carboxamide]",+++ (“+++” means <3 uM)
2,"CC(C)COc1cc(F)cc(-c2ccc(C(=O)NS(=O)(=O)c3cccc(N)n3)c(OC(C)c3cccc(F)c3)n2)c1 (stereo not shown) [Compound 562, N-[(6-amino-2-pyridyl)sulfonyl]-6-(3-fluoro-5-isobutoxy-phenyl)-2-[1-(3-fluorophenyl)ethoxy]pyridine-3-carboxamide]",+++ (“+++” means <3 uM)
3,"CC(C)COc1ccc(-c2ccc(C(=O)NS(=O)(=O)c3cccc(N)n3)c(N3[C@H](C)CC[C@@H]3C)n2)cc1 [Compound 563, N-[(6-amino-2-pyridyl)sulfonyl]-2-[(2S,5R)-2,5-dimethylpyrrolidin-1-yl]-6-(4-isobutoxyphenyl)pyridine-3-carboxamide]",+++ (“+++” means <3 uM)
4,"CC(C)COc1cc(F)cc(-c2ccc(C(=O)NS(=O)(=O)c3ccn[nH]3)c(N3CCC(F)(F)C3)n2)c1 [Compound 565, 2-(3,3-difluoropyrrolidin-1-yl)-6-(3-fluoro-5-isobutoxy-phenyl)-N-(1H-pyrazol-5-ylsulfonyl)pyridine-3-carboxamide]",+ (“+” means greater than 10 uM)
5,"CC(C)COc1cc(F)cc(-c2ccc(C(=O)NS(=O)(=O)c3cccc(N)n3)c(N3CCC(C)C(C)(C)C3)n2)c1 (stereo not shown) [Compound 575, N-[(6-amino-2-pyridyl)sulfonyl]-6-(3-fluoro-5-isobutoxy-phenyl)-2-(3,3,4-trimethyl-1-piperidyl)pyridine-3-carboxamide]",+++ (“+++” means <3 uM)
6,"CC(C)COc1cc(F)cc(-c2ccc(C(=O)NS(=O)(=O)c3cccc(N)n3)c(N3C[C@@H]4CC[C@@H](C4)C3)n2)c1 [Compound 581, N-[(6-amino-2-pyridyl)sulfonyl]-2-[(1R,5S)-3-azabicyclo[3.2.1]octan-3-yl]-6-(3-fluoro-5-isobutoxy-phenyl)pyridine-3-carboxamide]",+++ (“+++” means <3 uM)
7,"CC(C)COc1cc(F)cc(-c2ccc(C(=O)NS(=O)(=O)c3ccccc3)c(N3CCC(C)(C)CC3)n2)c1 [Compound 583, N-(benzenesulfonyl)-2-(4,4-dimethyl-1-piperidyl)-6-(3-fluoro-5-isobutoxy-phenyl)pyridine-3-carboxamide]",+++ (“+++” means <3 uM)
8,"Cc1cc(C)c(Oc2nc(-c3cc(F)cc(OCC(C)C)c3)ccc2C(=O)NS(=O)(=O)c2cncc(N)n2)c(C)c1 [Compound 586, N-(6-aminopyrazin-2-yl)sulfonyl-6-(3-fluoro-5-isobutoxy-phenyl)-2-(2,4,6-trimethylphenoxy)pyridine-3-carboxamide]",+++ (“+++” means <3 uM)
